Assay results reported in paper PMC10683023, “Targeting Glial Cells by Organic Anion-Transporting Polypeptide 1C1 (OATP1C1)-Utilizing L-Thyroxine-Derived Prodrugs” (Journal of Medicinal Chemistry, 2023).

Assays:
[1] = Enzymatic bioconversion in mouse serum; assay type: in vitro ADME; conditions: for Enzymatic stability, remaining percentage, mouse serum: after 5 h incubation
Procedure: The rates of bioactivation of the prodrugs 1–8 in mouse and human liver S9 fractions, as well as in mouse primary astrocyte–microglia homogenate, were determined at +37 °C. The incubation mixtures were prepared by mixing liver S9 subcellular fraction or brain cell homogenate (final protein concentration 1.0 mg/mL) with isotonic Tris–HCl buffer (pH 7.4) and 10 mM prodrug stock solution in DMSO (the initial concentration of prodrugs was 100 μM and the DMSO concentration was […]). The mixture was incubated for 5 h, and the samples ([…]) were withdrawn at appropriate intervals. The enzymatic reaction was terminated by the addition of ice-cold acetonitrile ([…]), and the samples were centrifuged for 5 min at 12 000 rpm at room temperature and kept on ice until the supernatants were analyzed by the HPLC method described below. In blank reactions, the S9 fractions were replaced with the same volume of buffer. The pseudo-first-order half-lives (t1/2) for the rates of bioconversion of the prodrugs were calculated from the slope of the linear portion of the plotted logarithm of the remaining prodrug concentration versus time. The rates of bioactivation of prodrugs 1–8 in human plasma and mouse serum were determined at 37 °C as above by adding 10 mM stock solution of the prodrug to plasma/serum in a ratio of 1:10 and analyzed similarly to the samples from S9 fractions.
(§1) The amount of prodrug 1–8 was determined by the HPLC system, which consisted of an Agilent 1100 binary pump (Agilent Technologies Inc., Wilmington, DE), an 1100 micro vacuum degasser, an HP 1050 Autosampler, and an HP 1050 variable wavelength detector, operated at 230–240 nm. The chromatographic separations were achieved on an Agilent Zorbax SB-C18 analytical column (4.4 mm × 150 mm, 5 μm) (Agilent Technologies Inc., Wilmington, DE) by using isocratic elution of water containing 0.1% formic acid (pH ca. 3.0) and acetonitrile containing 0.1% formic acid with ratios of 50:50, 30:70, 40:60, 50:50, 50:50, 40:60, 40:60, and 30:70 (v/v), respectively, for prodrug 1–8. […] The lower limit of quantification for prodrugs 1–8 was 0.20 μM. These HPLC methods were also accurate, precise, and selective over the range of 0.5–20 μM.

OATP1C1 = target: T1, OATP1C1 (Homo sapiens, UniProt Q9NYB5); test: Competitive uptake into U-87MG cells in the presence of OATP1C1 inhibitors diclofenac and flufenamic acid; assay type: cell-based; conditions: 100 μM prodrug; for Reduction of cellular uptake by DCF: 100 μM diclofenac; for Cellular uptake in the presence of OATP1C1 inhibitors (DCF and FFA): 100 μM inhibitor, result in words
T1 construct: human U-87MG cells that expressed OATP1C1, but not other OATPs; endogenous in cells; host or cells: U-87MG human glioma cells
T1 sequence (Q9NYB5 1-712): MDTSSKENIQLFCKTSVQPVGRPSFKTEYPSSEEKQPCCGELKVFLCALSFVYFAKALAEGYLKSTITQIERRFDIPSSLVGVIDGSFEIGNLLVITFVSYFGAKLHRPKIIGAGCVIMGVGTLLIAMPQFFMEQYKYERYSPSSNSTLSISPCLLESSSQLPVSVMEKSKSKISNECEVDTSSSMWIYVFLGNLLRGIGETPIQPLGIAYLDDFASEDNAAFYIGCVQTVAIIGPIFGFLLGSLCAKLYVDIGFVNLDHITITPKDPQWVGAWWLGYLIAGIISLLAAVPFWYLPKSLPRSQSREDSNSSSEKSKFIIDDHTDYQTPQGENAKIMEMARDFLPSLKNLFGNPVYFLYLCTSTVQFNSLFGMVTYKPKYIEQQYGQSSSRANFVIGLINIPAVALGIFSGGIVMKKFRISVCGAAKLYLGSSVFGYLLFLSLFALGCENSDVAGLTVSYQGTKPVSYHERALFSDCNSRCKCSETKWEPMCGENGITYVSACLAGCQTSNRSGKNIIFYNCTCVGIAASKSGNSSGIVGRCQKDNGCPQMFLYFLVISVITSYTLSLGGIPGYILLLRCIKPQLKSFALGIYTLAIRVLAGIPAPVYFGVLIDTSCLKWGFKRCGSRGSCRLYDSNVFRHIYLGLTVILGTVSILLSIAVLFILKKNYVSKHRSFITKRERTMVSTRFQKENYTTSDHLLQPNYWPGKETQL
Procedure: (§2) The competitive uptake in the presence of OATP-inhibitors or competing substrates (100 μM), diclofenac (DFC) and flufenamic acid (FFA), for OATP1C1 and naringin (NRG) for OATP1A2 was carried out as described above with HBSS buffer at pH 7.4 containing 100 μM of the studied compound. The cells were preincubated with the inhibitors for 10 min, and the incubation mixture was removed before adding the studied compound and the inhibitor to the cells. The competitive uptake (30 min) with the inhibitor was then carried out as the normal uptake described above. The concentrations of the studied compounds were analyzed by the HPLC methods described below, calculated from the spiked standard curve, and normalized with the protein concentrations.
as §1

oatp1a4/1a5/1a6 = test: Competitive uptake into mouse primary astrocytes in the presence of OATP1A2 inhibitor naringin; assay type: cell-based; conditions: 100 μM prodrug, 100 μM NRG, result in words
Procedure: as §2, §1

Row | Structure (SMILES) | Enzymatic stability, remaining percentage, mouse serum ([1]; 37 °C, mean ± SD, n = 3) [%] | Reduction of cellular uptake by DCF (OATP1C1) | Cellular uptake in the presence of OATP1C1 inhibitors (DCF and FFA) (OATP1C1) | inhibition at 30 min, 100 μM (OATP1C1; human, pH 7.4, with flufenamic acid (FFA) 100 μM, 100 μM flufenamic acid, read-out: Inhibition of cellular uptake by FFA) [%] | Cellular uptake in the presence of OATP1A2 inhibitor naringin (NRG) (oatp1a4/1a5/1a6) | Bioconversion rate in mouse serum relative to human plasma ([1]; higher in mouse serum) [times] | half-life at 1 mM ([1]; mouse, serum, 37 °C, mean ± SD, n = 3, read-out: Enzymatic bioconversion half-life t1/2, mouse serum) [h]
1 | CC(C(=O)Oc1c(I)cc(Oc2c(I)cc(C[C@H](N)C(=O)O)cc2I)cc1I)c1cccc(C(=O)c2ccccc2)c1 (mixture of isomers) [Prodrug 2, (2S)-2-Amino-3-(4-(4-((2-(3-benzoylphenyl)propanoyl)oxy)-3,5-diiodophenoxy)-3,5-diiodophenyl)propanoic acid] | 98.79 ± 1.21 | ca. 56% | reduced more effectively compared to prodrug 1 | ~42 | greatest decrease | – | –
2 | CC(C(=O)Oc1c(I)cc(C[C@H](N)C(=O)O)cc1I)c1ccc(-c2ccccc2)c(F)c1 (mixture of isomers) [Prodrug 7, (2S)-2-Amino-3-(4-((2-(2-fluoro-[1,1′-biphenyl]-4-yl)propanoyl)oxy)-3,5-diiodophenyl)propanoic acid] | 94.89 ± 5.11 | – | significantly reduced | – | – | – | –
3 | CC(C(=O)Oc1c(I)cc(Oc2c(I)cc(C[C@H](N)C(=O)O)cc2I)cc1I)c1ccc(-c2ccccc2)c(F)c1 (mixture of isomers) [Prodrug 8, (2S)-2-Amino-3-(4-(4-((2-(2-fluoro-[1,1′-biphenyl]-4-yl)propanoyl)oxy)-3,5-diiodophenoxy)-3,5-diiodophenyl)propanoic acid] | 96.79 ± 3.21 | – | significantly reduced | – | – | – | –
4 | N[C@@H](Cc1cc(I)c(OC(=O)c2ccccc2O)c(I)c1)C(=O)O [Prodrug 3, (S)-2-Amino-3-(4-((2-hydroxybenzoyl)oxy)-3,5-diiodophenyl)propanoic acid] | 14.40 ± 0.60 | – | not affected significantly | – | – | 5 | 1.39 ± 0.49
5 | N[C@@H](Cc1cc(I)c(Oc2cc(I)c(OC(=O)c3ccccc3O)c(I)c2)c(I)c1)C(=O)O [Prodrug 4, (S)-2-Amino-3-(4-(4-((2-hydroxybenzoyl)oxy)-3,5-diiodophenoxy)-3,5-diiodophenyl)propanoic acid] | 96.79 ± 3.21 | – | slightly increased | – | – | – | –
6 | COc1ccc2cc([C@H](C)C(=O)Oc3c(I)cc(C[C@H](N)C(=O)O)cc3I)ccc2c1 [Prodrug 5, (S)-2-Amino-3-(3,5-diiodo-4-(((S)-2-(6-methoxynaphthalen-2-yl)propanoyl)oxy)phenyl)propanoic acid] | 96.75 ± 3.25 | 25% | affected by DCF but not by FFA | – | increased | – | –
7 | COc1ccc2cc([C@H](C)C(=O)Oc3c(I)cc(Oc4c(I)cc(C[C@H](N)C(=O)O)cc4I)cc3I)ccc2c1 [Prodrug 6, (S)-2-Amino-3-(4-(3,5-diiodo-4-(((S)-2-(6-methoxynaphthalen-2-yl)propanoyl)oxy)phenoxy)-3,5-diiodophenyl)propanoic acid] | 98.33 ± 1.67 | 75% | affected by DCF but not by FFA | – | increased | – | –
